Reference: patent US20210122730A1, “GLUCOCORTICOID RECEPTOR MODULATORS” (ORIC Pharmaceuticals, Inc., priority 2017, published 2021)

molecular target: T1, GR (Homo sapiens, UniProt P04150); assay: In Vitro GR Luciferase Reporter Assay (antagonist mode, CHO-K1-GR-MMTV-Luc reporter cells); assay type: cell-based; conditions: antagonist assay with 10 nM Dexamethasone, 18-24 hours
T1 construct: expressed in transfected cells; host or cells: CHO-K1
T1 sequence (P04150 1-777): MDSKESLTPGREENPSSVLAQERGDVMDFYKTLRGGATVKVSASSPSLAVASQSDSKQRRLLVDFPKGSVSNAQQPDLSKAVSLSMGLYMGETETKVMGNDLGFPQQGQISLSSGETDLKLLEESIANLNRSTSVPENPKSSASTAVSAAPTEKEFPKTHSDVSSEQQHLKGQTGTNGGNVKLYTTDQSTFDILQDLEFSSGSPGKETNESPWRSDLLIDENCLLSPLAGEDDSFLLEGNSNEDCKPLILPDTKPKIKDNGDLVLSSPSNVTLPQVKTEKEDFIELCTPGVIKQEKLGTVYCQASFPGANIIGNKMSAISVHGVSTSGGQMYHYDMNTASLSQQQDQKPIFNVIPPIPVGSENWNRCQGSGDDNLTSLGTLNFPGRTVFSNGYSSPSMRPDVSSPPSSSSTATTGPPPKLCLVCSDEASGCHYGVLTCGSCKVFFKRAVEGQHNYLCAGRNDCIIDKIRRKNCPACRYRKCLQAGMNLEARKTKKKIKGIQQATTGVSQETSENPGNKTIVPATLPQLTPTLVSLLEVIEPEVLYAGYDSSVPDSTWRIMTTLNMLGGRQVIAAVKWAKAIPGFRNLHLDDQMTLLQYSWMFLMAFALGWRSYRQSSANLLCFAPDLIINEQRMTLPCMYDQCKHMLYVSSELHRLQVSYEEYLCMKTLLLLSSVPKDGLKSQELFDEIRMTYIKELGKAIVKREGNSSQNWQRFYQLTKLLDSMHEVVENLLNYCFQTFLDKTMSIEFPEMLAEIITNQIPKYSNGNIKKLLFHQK
In short: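 CHO-K1-GR-MMTV-Luc cells in phenol red-free DMEM with 10% CSS, stimulated with 10 nM dexamethasone (final) and treated with 8-point 1:5 compound dilutions for about 18-24 h at 37° C. Luciferase measured by OneGlo luminescence; IC50 derived for inhibition of GR activity.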

IC50 [µM]	SMILES
≤ 0.1	Cn1cc(S(=O)(=O)[C@H]2CCC3=Cc4c(cnn4-c4ccc(F)cc4)C[C@]3(C(=O)c3cc(C(F)(F)F)ccn3)C2)cn1 [Example 3, ((4aS,6S)-1-(4-Fluorophenyl)-6-((1-methyl-1H-pyrazol-4-yl)sulfonyl)-1,4,5,6,7,8-hexahydro-4aH-benzo[f]indazol-4a-yl)(4-(trifluoromethyl)pyridin-2-yl)methanone]
≤ 0.1	O=C(c1ccc(C(F)(F)F)cn1)[C@]12Cc3cnn(-c4ccc(F)cc4)c3C=C1CC[C@H](S(=O)(=O)C1CCOCC1)C2 [Example 70, ((4aS,6S)-1-(4-fluorophenyl)-6-((tetrahydro-2H-pyran-4-yl)sulfonyl)-1,4,5,6,7,8-hexahydro-4aH-benzo[f]indazol-4a-yl)(5-(trifluoromethyl)pyridin-2-yl)methanone]
≤ 0.1	Cc1ccc(S(=O)(=O)[C@H]2CCC3=Cc4c(cnn4-c4ccc(F)cc4)C[C@]3(C(=O)c3cc(C(F)(F)F)ccn3)C2)cc1 [Example 15, ((4aS,6S)-1-(4-fluorophenyl)-6-tosyl-1,4,5,6,7,8-hexahydro-4aH-benzo[f]indazol-4a-yl)(4-(trifluoromethyl)pyridin-2-yl)methanone]
≤ 0.1	CN([C@H]1CCC2=Cc3c(cnn3-c3ccc(F)cc3)C[C@]2(C(=O)c2cc(C(F)(F)F)ccn2)C1)S(=O)(=O)c1ccc(C(F)(F)F)cc1 [Example 86, N-((4aS,6S)-1-(4-fluorophenyl)-4a-(4-(trifluoromethyl)picolinoyl)-4,4a,5,6,7,8-hexahydro-1H-benzo[f]indazol-6-yl)-N-methyl-4-(trifluoromethyl)benzenesulfonamide]
≤ 0.1	O=C(c1ccccn1)[C@]12Cc3cnn(-c4ccc(F)cc4)c3C=C1CC[C@H](S(=O)(=O)C1CCC1)C2 [Example 67, ((4aS,6S)-6-(cyclobutylsulfonyl)-1-(4-fluorophenyl)-1,4,5,6,7,8-hexahydro-4aH-benzo[f]indazol-4a-yl)(pyridin-2-yl)methanone]
≤ 0.1	O=C(c1ccccn1)[C@]12Cc3cnn(-c4ccc(F)cc4)c3C=C1CC[C@H](S(=O)(=O)c1ccccn1)C2 [Example 26, ((4aS,6S)-1-(4-fluorophenyl)-6-(pyridin-2-ylsulfonyl)-1,4,5,6,7,8-hexahydro-4aH-benzo[f]indazol-4a-yl)(pyridin-2-yl)methanone]
≤ 0.1	COc1ccc(C(=O)[C@]23Cc4cnn(-c5ccc(F)cc5)c4C=C2CC[C@H](S(=O)(=O)c2ccccn2)C3)nc1 [Example 61, ((4aS,6S)-1-(4-fluorophenyl)-6-(pyridin-2-ylsulfonyl)-1,4,5,6,7,8-hexahydro-4aH-benzo[f]indazol-4a-yl)(5-methoxypyridin-2-yl)methanone]
≤ 0.1	O=C(c1cc(C(F)(F)F)ccn1)[C@]12Cc3cnn(-c4ccc(F)cc4)c3C=C1CC[C@H](S(=O)(=O)c1cnn(CC3CC3)n1)C2 [Example 79, ((4aS,6S)-6-((2-(cyclopropylmethyl)-2H-1,2,3-triazol-4-yl)sulfonyl)-1-(4-fluorophenyl)-1,4,5,6,7,8-hexahydro-4aH-benzo[f]indazol-4a-yl)(4-(trifluoromethyl)pyridin-2-yl)methanone]
≤ 0.1	O=C(c1ccccn1)[C@]12Cc3cnn(-c4ccc(F)cc4)c3C=C1CC[C@H](S(=O)(=O)C1CCC(F)(F)CC1)C2 [Example 65, ((4aS,6S)-6-((4,4-difluorocyclohexyl)sulfonyl)-1-(4-fluorophenyl)-1,4,5,6,7,8-hexahydro-4aH-benzo[f]indazol-4a-yl)(pyridin-2-yl)methanone]
≤ 0.1	O=C(c1ccc(F)cn1)[C@]12Cc3cnn(-c4ccc(F)cc4)c3C=C1CC[C@H](S(=O)(=O)c1ccccn1)C2 [Example 68, ((4aS,6S)-1-(4-fluorophenyl)-6-(pyridin-2-ylsulfonyl)-1,4,5,6,7,8-hexahydro-4aH-benzo[f]indazol-4a-yl)(5-fluoropyridin-2-yl)methanone]
≤ 0.1	CC1(O)CCC(S(=O)(=O)[C@H]2CCC3=Cc4c(cnn4-c4ccc(F)cc4)C[C@]3(C(=O)c3ccccn3)C2)CC1 (stereo partly drawn) [Example 60, ((4aS,6S)-1-(4-fluorophenyl)-6-((4-hydroxy-4-methylcyclohexyl)sulfonyl)-1,4,5,6,7,8-hexahydro-4aH-benzo[f]indazol-4a-yl)(pyridin-2-yl)methanone]

same assay, conditions: antagonist mode, 10 nM Dexamethasone

IC50 [µM]	SMILES
≤ 0.1	Cn1cc(C(=O)N(C2CC2)[C@H]2CCC3=Cc4c(cnn4-c4ccc(F)cc4)C[C@]3(C(=O)c3ncc(C(F)(F)F)s3)C2)cn1 [Example 188, N-cyclopropyl-N-((4aS,6S)-1-(4-fluorophenyl)-4a-(5 (trifluoromethyl)thiazole-2-carbonyl)-4,4a,5,6,7,8-hexahydro-1H-benzo[f]indazol-6-yl)-1-methyl-1H-pyrazole-4-carboxamide]
≤ 0.1	Cn1ccc(S(=O)(=O)CC2CCC3=Cc4c(cnn4-c4ccc(F)cc4)C[C@]3(C(=O)c3ncc(C(F)(F)F)s3)C2)n1 (stereo partly drawn) [Example 361, ((4aR)-1-(4-fluorophenyl)-6-(((1-methyl-1H-pyrazol-3-yl)sulfonyl)methyl)-1,4,5,6,7,8-hexahydro-4aH-benzo[f]indazol-4a-yl)(5-(trifluoromethyl)thiazol-2-yl)methanone]
≤ 0.1	Cn1cc(S(=O)(=O)N(C2CC2)[C@H]2CCC3=Cc4c(cnn4-c4ccc(F)cc4)C[C@]3(C(=O)c3ncc(C4CC4)s3)C2)cn1 [Example 171, N-cyclopropyl-N-((4aS,6S)-4a-(5-cyclopropylthiazole-2-carbonyl)-1-(4-fluorophenyl)-4,4a,5,6,7,8-hexahydro-1H-benzo[f]indazol-6-yl)-1-methyl-1H-pyrazole-4-sulfonamide]
≤ 0.1	Cn1cc(S(=O)(=O)N(C2CC(F)(F)C2)[C@H]2CCC3=Cc4c(cnn4-c4ccc(F)cc4)C[C@]3(C(=O)c3ncc(C(F)(F)F)s3)C2)cn1 [Example 406, N-(3,3-difluorocyclobutyl)-N-((4aS,6S)-1-(4-fluorophenyl)-4a-(5-(trifluoromethyl)thiazole-2-carbonyl)-4,4a,5,6,7,8-hexahydro-1H-benzo[f]indazol-6-yl)-1-methyl-1H-pyrazole-4-sulfonamide]
≤ 0.1	CN([C@H]1CCC2=Cc3c(cnn3-c3ccc(F)cc3)C[C@]2(C(=O)c2ncc(C3CC3)s2)C1)S(=O)(=O)c1cnn(C)n1 [Example 148, N-((4aS,6S)-4a-(5-cyclopropylthiazole-2-carbonyl)-1-(4-fluorophenyl)-4,4a,5,6,7,8-hexahydro-1H-benzo[f]indazol-6-yl)-N,2-dimethyl-2H-1,2,3-triazole-4-sulfonamide]
≤ 0.1	COCCN([C@H]1CCC2=Cc3c(cnn3-c3ccc(F)cc3)C[C@]2(C(=O)c2ncc(C(F)(F)F)s2)C1)S(=O)(=O)c1ccc(F)cc1 [Example 372, 4-fluoro-N-((4aS,6S)-1-(4-fluorophenyl)-4a-(5-(trifluoromethyl)thiazole-2-carbonyl)-4,4a,5,6,7,8-hexahydro-1H-benzo[f]indazol-6-yl)-N-(2-methoxyethyl)benzenesulfon-amide]
≤ 0.1	Cn1ccc(S(=O)(=O)N(CCF)[C@H]2CCC3=Cc4c(cnn4-c4ccc(F)cc4)C[C@]3(C(=O)c3cc(F)ccn3)C2)n1 [Example 397, N-(2-fluoroethyl)-N-((4aS,6S)-1-(4-fluorophenyl)-4a-(4-fluoropicolinoyl)-4,4a,5,6,7,8-hexahydro-1H-benzo[f]indazol-6-yl)-1-methyl-1H-pyrazole-3-sulfonamide]
≤ 0.1	Cn1ccc(S(=O)(=O)N(C2CC2)[C@H]2CCC3=Cc4c(cnn4-c4ccc(F)nc4)C[C@]3(C(=O)c3cc(C(F)(F)F)ccn3)C2)n1 [Example 402, N-cyclopropyl-N-((4aS,6S)-1-(6-fluoropyridin-3-yl)-4a-(4-(trifluoromethyl)picolinoyl)-4,4a,5,6,7,8-hexahydro-1H-benzo[f]indazol-6-yl)-1-methyl-1H-pyrazole-3-sulfonamide]
≤ 0.1	Cn1ccc(C(=O)N(C2CC2)[C@H]2CCC3=Cc4c(cnn4-c4ccc(F)cc4)C[C@]3(C(=O)c3cc(C(F)(F)F)ccn3)C2)n1 [Example 197, N-cyclopropyl-N-((4aS,6S)-1-(4-fluorophenyl)-4a-(4-(trifluoromethyl)picolinoyl)-4,4a,5,6,7,8-hexahydro-1H-benzo[f]indazol-6-yl)-1-methyl-1H-pyrazole-3-carboxamide]
≤ 0.1	CCn1ncc(S(=O)(=O)N(C)[C@H]2CCC3=Cc4c(cnn4-c4ccc(F)cc4)C[C@]3(C(=O)c3cc(C(F)(F)F)ccn3)C2)n1 [Example 126, 2-ethyl-N-((4aS,6S)-1-(4-fluorophenyl)-4a-(4-(trifluoromethyl)picolinoyl)-4,4a,5,6,7,8-hexahydro-1H-benzo[f]indazol-6-yl)-N-methyl-2H-1,2,3-triazole-4-sulfonamide]
